Test results reported in patent US20160051529A1, “PPAR-SPARING THIAZOLIDINEDIONES AND COMBINATIONS FOR THE TREATMENT OF NEURODEGENERATIVE AND OTHER METABOLIC DISEASES” (METABOLIC SOLUTIONS DEVELOPMENT COMPANY LLC, priority 2012, published 2016).

Key:
[1] = target: T1, human PPARγ ligand binding domain (LBD) (Homo sapiens, UniProt P37231); experiment: TR-FRET PPARγ competitive binding assay (Invitrogen LanthaScreen)
T1 construct: purchased Invitrogen #4894
T1 sequence (P37231 238-503 limits assumed): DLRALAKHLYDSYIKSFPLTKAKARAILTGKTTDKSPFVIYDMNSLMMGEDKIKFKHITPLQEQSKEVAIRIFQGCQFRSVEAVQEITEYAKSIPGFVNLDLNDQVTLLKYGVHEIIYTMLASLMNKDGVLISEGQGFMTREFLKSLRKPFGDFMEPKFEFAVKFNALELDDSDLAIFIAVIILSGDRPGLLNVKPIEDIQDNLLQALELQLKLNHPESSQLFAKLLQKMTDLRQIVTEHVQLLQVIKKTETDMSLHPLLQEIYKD
Protocol: Whereas activation of the PPARγ receptor is generally believed to be a selection criteria to select for molecules that may have anti-diabetic and insulin sensitizing pharmacology, this invention finds that activation of this receptor should be a negative selection criterion. Molecules will be chosen from this chemical space because they have reduced, not just selective, activation of PPARγ. […] The assays are conducted by first evaluation of the direct interactions of the molecules with the ligand binding domain of PPARγ. This can be performed with a commercial interaction kit that measures the direct interaction by florescence using rosiglitazone as a positive control.
PPARγ binding is measured by a TR-FRET competitive binding assay using Invitrogen LanthaScreen™ TR-FRET PPARγ Competitive Binding Assay (Invitrogen #4894). This assay uses a terbium-labeled anti-GST antibody to label the GST tagged human PPARγ ligand binding domain (LBD). A fluorescent small molecule pan-PPAR ligand tracer binds to the LBD causing energy transfer from the antibody to the ligand resulting in a high TR-FRET ratio. Competition binding by PPARγ ligands displace the tracer from the LBD causing a lower FRET signal between the antibody and tracer. The TR-FRET ratio is determined by reading the fluorescence emission at 490 and 520 nm using a Synergy2 plate reader (BioTek). The ability of several exemplary compounds of the present invention to bind to PPARγ was also measured using a commercial binding assay (Invitrogen Corporation, Carlsbad, Calif.) that measures the test compounds ability to bind with PPAR-LBD/Fluormone PPAR Green complex. These assays were performed on three occasions with each assay using four separate wells (quadruplicate) at each concentration of tested compound. The data are mean and SEM of the values obtained from the three experiments. Rosiglitazone was used as the positive control in each experiment. Compounds were added at the concentrations shown, which ranged from 0.1-100 micromolar.

[2] = Glucose, triglycerides and insulin, T/C normalized to vehicle; format: in vivo; conditions: normalized to vehicle activity
[3] = system: 5XFAD mice; experiment: Plaque pathology in hippocampus of 5XFAD mice; format: in vivo; conditions: chow delivering 390 mg/kg for 4 weeks
Protocol: 5XFAD mice harbor 5 familial mutations (3 in the amyloid precursor protein; 2 in presenilin 1) and develop robust plaque pathology as early as 6 weeks. These mice were treated beginning at 2 months of age for a period of 4 weeks with control chow or chow containing Compound A to deliver 390 mg/kg for 4 weeks.
Referring to FIG. 7, […] stained plaques were counted in the hippocampus of the 5XFAD mice. […] Note that the plaques having less than 100 micron size were excluded from the graph, and those amounted to about 70% of all the plaques in both Control and Compound A treated groups.

[4] = system: PGC-1α; experiment: Expression of PGC-1α mRNA in precursor BAT cells with norepinephrine; format: cell-based; conditions: 3 μM compound for seven days, then 1 μM norepinephrine for 2 hours, quantitative PCR
Protocol: Another example of the ability of augmented signaling between cyclic nucleotides and compounds of Formula I is shown by the effect on expression of PGC-1α, a known regulator of mitochondrial biogenesis. Increased numbers of mitochondria are predictive of utility for the reduction of body weight.
Precursor BAT cells were isolated as described above and treated with or without 3 μM compounds: 1.] Compound A: 5-(4-(2-(5-ethylpyridin-2-yl)-2-oxoethoxy)benzyl)-1,3-thiazolidine-2,4-dione; 2.] Compound B: 5-(4-(2R)-2-(5-ethylpyridin-2-yl)-2-hydroxyethoxyy)benzyl)-1,3-thiazolidine-2,4-dione; or 3.] Compound C: 5-(4-(2-(3-methoxyphenyl)-2-oxoethoxy)benzyl)-1,3-thiazolidine-2,4-dione for seven days followed by treatment with 1 μM norepinephrine for 2 hours. Total RNA was isolated from the cells and the RNA message (mRNA) for PGC-1α was measured by quantitative polymerase chain reactions.

| Structure (SMILES) | IC50 [1] | other results |
| --- | --- | --- |
| CCO/C(=C\c1ccc(OCC(=O)c2ccc(CC)cn2)cc1)C(=O)O [Compound 14] | 96.1 µM | – |
| CCOC(Cc1ccc(OC[C@@H](F)c2cccc(OC)c2)cc1)C(=O)O (stereo partly drawn) [Compound 50] | 157 µM | – |
| CCOC(Cc1ccc(OC/C(=N/OC)c2ccc(CC)cn2)cc1)C(=O)O (stereo not drawn) [Compound 18] | 62.2 µM | – |
| COc1cccc(C(=O)COc2cccc(O[C@H](C)C(=O)O)c2)c1 [Compound 15] | 100 µM | – |
| COc1cccc(C(=O)COc2ccc(C[C@@H](O)C(=O)O)cc2)c1 [Compound 53] | > 263 µM | – |
| CCO/C(=C\c1cccc(OCC(=O)c2cccc(OC)c2)c1)C(=O)O [Compound 13] | 21.8 µM | Insulin (T/C) ([2]; no dose given): 0.81 T/C; Triglycerides (mean T/C) ([2]; no dose given): 0.86 T/C |
| COc1cccc(C(=O)COc2ccc(CC(=O)C(=O)O)cc2)c1 [Compound 10] | 111 µM | – |
| CCO/C(=C\c1ccc(OC/C(=N/OC)c2ccc(CC)cn2)cc1)C(=O)O [Compound 17] | 21 µM | – |
| CCO[C@@H](Cc1ccc(OC[C@@H](N)c2ccccc2)cc1)C(=O)O [Compound 57] | 39.7 µM | – |
| CCc1ccc(C(=O)COc2ccc(CC3SC(=O)NC3=O)cc2)nc1 (stereo not drawn) [Compound A, 5-(4-(2-(5-ethylpyridin-2-yl)-2-oxoethoxy)benzyl)-1,3-thiazolidine-2,4-dione] | – | plaques having less than 100 micron size, share of all the plaques ([3]; same in the control group): about 70%; size and number of thioflavin stained plaques in the hippocampus ([3]; versus control chow): less than the control group; PGC-1α mRNA (message) [4]: an increase in PGC-1α message was observed |
| CCOC(=O)[C@H](Cc1ccc(OC[C@@H](NC(=O)OC(C)(C)C)c2ccccc2)cc1)OCC [Compound 61] | 14.1 µM | – |
| CCO[C@@H](Cc1ccc(OC[C@H](NC=O)c2ccccc2)cc1)C(=O)O [Compound 59] | > 250 µM | – |
| CCOC(Oc1ccc(OC[C@H](O)c2ccc(CC)cn2)cc1)C(=O)O (stereo partly drawn) [Compound 36] | 17.6 µM | Triglycerides (mean T/C) ([2]; @0.5): 0.50@0.5 T/C; Insulin (T/C) ([2]; @7.5): 0.26@7.5 T/C; Triglycerides (mean T/C) ([2]; @7.5): 0.41@7.5 T/C; Insulin (T/C) ([2]; @15): 0.33@15 T/C; Insulin (T/C) ([2]; @30): 0.46@30 T/C; Triglycerides (mean T/C) ([2]; @30): 0.38@30 T/C |
| COc1cccc(C(=O)COc2ccc(CC3SC(=O)NC3=O)cc2)c1 (stereo not drawn) [Compound C, 5-(4-(2-(3-methoxyphenyl)-2-oxoethoxy)benzyl)-1,3-thiazolidine-2,4-dione] | – | PGC-1α mRNA (message) [4]: an increase in PGC-1α message was observed |
| CCO[C@@H](Cc1ccc(OC[C@@H](NC=O)c2ccccc2)cc1)C(=O)O [Compound 58] | 12.3 µM | – |
| CCO[C@@H](Cc1ccc(OC[C@@H](NC(C)=O)c2ccccc2)cc1)C(=O)O [Compound 56] | 33.7 µM | – |
| CCOC(Cc1ccc(OCC(=O)c2cccc(OC)c2)cc1)C(=O)O (stereo not drawn) [Compound 47] | 6.07 µM | Insulin (T/C) ([2]; no dose given): 0.26 T/C; Triglycerides (mean T/C) ([2]; no dose given): 0.33 T/C |
| CCOC(Oc1ccc(OC[C@@H](O)c2ccc(CC)cn2)cc1)C(=O)O (stereo partly drawn) [Compound 35] | 0.3 µM | Insulin (T/C) ([2]; @7.5): 0.20@7.5 T/C; Triglycerides (mean T/C) ([2]; @7.5): 0.32@7.5 T/C; Insulin (T/C) ([2]; @15): 0.44@15 T/C; Triglycerides (mean T/C) ([2]; @15): 0.24@15 T/C; Insulin (T/C) ([2]; @30): 0.11@30 T/C; Triglycerides (mean T/C) ([2]; @30): 0.17@30 T/C |
| CCO[C@@H](Cc1ccc(OC[C@@H](NC(=O)OC(C)(C)C)c2ccccc2)cc1)C(=O)O [Compound 55] | 18.9 µM | – |
| CCOC(Cc1ccc(OCC(=O)c2ccc(CC)cn2)cc1)C(=O)O (stereo not drawn) [Compound 1] | 17.8 µM | – |
| CCOC(Cc1ccc(OCC(=NO)c2cccc(OC)c2)cc1)C(=O)O (stereo not drawn) [Compound 48] | 14.7 µM | – |
| CCO[C@@H](Cc1ccc(OC[C@H](NS(C)(=O)=O)c2ccccc2)cc1)C(=O)O [Compound 60] | 80.3 µM | – |
| CCOC(=O)[C@H](Cc1ccc(OC[C@@H](N)c2ccccc2)cc1)OCC [Compound 62] | 84.8 µM | – |
| CCc1ccc([C@@H](O)COc2ccc(CC3SC(=O)NC3=O)cc2)nc1 (stereo partly drawn) [Compound B] | – | PGC-1α mRNA (message) [4]: an increase in PGC-1α message was observed |
